Test results taken from patent US20220017512A1 (SHANGHAI ENNOVABIO PHARMACEUTICALS CO., LTD., priority 2018, published 2022).
pIC50: −log10 of the molar value. Structures can show the parent of a compound that is named as a salt.

Assays:
Format in all cases: biochemical
[1] = target: T1, recombinant human TRKA (G667C) (Homo sapiens, UniProt P04629, G667C); assay: In vitro activity test on mutant TRKA (G667C) (HTRF KinEASE TK); settings: 5.5 μM ATP, 30 min
T1 construct: purchased SignalChem
Protocol: Biological Test Example 2 In Vitro Activity Test on Mutant TRKA (G595R), TRKA (G667C) and TRKC (G623R)
The recombinant human TRKA (G595R), TRKA (G667C) and TRKC (G623R) proteins were purchased from SignalChem. HTRF kinEASE TK kit was purchased from CisbioBioassays. Synergy Neo 2 of Biotek was used to read the plate.
The tested compound was subjected to 4-fold serial dilution to reach a final concentration of 1 μM to 0.004 nM (10 concentrates), duplicates for each concentration; and 1% DMSO was present in the detection reaction.
0.026 ng/μL TRKA (G667C) kinase, 1 μM TK Substrate-biotin polypeptide substrate, 5.5 μm ATP, 1× enzymatic buffer, 5 mM MgCl2, and 1 mM DTT. The detection plate was White Proxiplate 384-Plus plate (PerkinElmer), and incubated at room temperature for 30 min, the assay volume was 10 μL.
10 μL of detection reagent was added to the plate (containing 0.125 μM SA-XL665 and 5 μL 1×TK-Antibody) and incubated overnight at room temperature, and Synergy Neo 2 was used to read the plate.
The value of 665/620 Ratio minus the value of negative control wells without enzyme, then the obtained value was converted according to the following formula into inhibition rate (%)=(1−Ratiotest/Ratiomax)×100%. Ratiomax was a positive control without tested compound, and Ratiotest was the value of each concentration of different compounds. IC50 (nM) data was obtained by 4 parameter curve fitting (see Table 1).

[2] = target: T2, Recombinant human TRKC (Homo sapiens, UniProt Q16288); assay: In vitro activity test on TRKC kinase (HTRF KinEASE TK); settings: 25.64 μM ATP, 40 min
T2 construct: purchased Carna Biosciences
Outline: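 Recombinant human TRKC (0.037 ng/μL) with 1 μM biotinylated TK substrate, 25.64 μM ATP, 5 mM MgCl2, 1 mM DTT, 40 min at room temperature; compound 1 μM to 0.05 nM, 1% DMSO. HTRF 665/620 ratio after overnight detection; IC50 from 4-parameter fit.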

[3] = target: T3, Recombinant human TRKA (Homo sapiens, UniProt P04629); assay: In vitro activity test on TRKA kinase (HTRF KinEASE TK); settings: 14.68 μM ATP, 40 min
T3 construct: purchased Carna Biosciences
Outline: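 Reaction: 0.2 ng/μL TRKA, 1 μM biotinylated TK substrate, 14.68 μM ATP, 5 mM MgCl2, 1 mM DTT, 1% DMSO, 40 min at room temperature. Compounds tested at 1 μM to 0.05 nM (10-point, 3-fold, duplicate). HTRF 665/620 ratio converted to % inhibition versus no-compound control; IC50 by 4-parameter fit.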

[4] = target: T4, recombinant human TRKA (G595R) (Homo sapiens, UniProt P04629, G595R); assay: In vitro activity test on mutant TRKA (G595R) (HTRF KinEASE TK); settings: 4.5 μM ATP, 30 min
T4 construct: purchased SignalChem
Outline: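 HTRF KinEASE TK format: 0.12 ng/μL recombinant TRKA (G595R), 1 μM biotinylated TK substrate, 4.5 μM ATP, 5 mM MgCl2, 1 mM DTT, 1% DMSO, 30 min at room temperature; detection overnight. IC50 from 10-point 4-fold series (1 μM to 0.004 nM, duplicates), 665/620 ratio, 4-parameter fit.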

[5] = target: T5, Recombinant human TRKB (Homo sapiens, UniProt Q16620); assay: In vitro activity test on TRKB kinase (HTRF KinEASE TK); settings: 4.77 μM ATP, 50 min
T5 construct: purchased Carna Biosciences
Outline: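 Recombinant human TRKB (0.037 ng/μL) phosphorylated 1 μM biotinylated TK substrate at 4.77 μM ATP, 5 mM MgCl2, 1% DMSO, 50 min at room temperature; compounds 1 μM–0.05 nM. HTRF KinEASE detection overnight; 665/620 ratio converted to inhibition and IC50 from 4-parameter fit.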

T4 sequence (P04629 33-796 G595R): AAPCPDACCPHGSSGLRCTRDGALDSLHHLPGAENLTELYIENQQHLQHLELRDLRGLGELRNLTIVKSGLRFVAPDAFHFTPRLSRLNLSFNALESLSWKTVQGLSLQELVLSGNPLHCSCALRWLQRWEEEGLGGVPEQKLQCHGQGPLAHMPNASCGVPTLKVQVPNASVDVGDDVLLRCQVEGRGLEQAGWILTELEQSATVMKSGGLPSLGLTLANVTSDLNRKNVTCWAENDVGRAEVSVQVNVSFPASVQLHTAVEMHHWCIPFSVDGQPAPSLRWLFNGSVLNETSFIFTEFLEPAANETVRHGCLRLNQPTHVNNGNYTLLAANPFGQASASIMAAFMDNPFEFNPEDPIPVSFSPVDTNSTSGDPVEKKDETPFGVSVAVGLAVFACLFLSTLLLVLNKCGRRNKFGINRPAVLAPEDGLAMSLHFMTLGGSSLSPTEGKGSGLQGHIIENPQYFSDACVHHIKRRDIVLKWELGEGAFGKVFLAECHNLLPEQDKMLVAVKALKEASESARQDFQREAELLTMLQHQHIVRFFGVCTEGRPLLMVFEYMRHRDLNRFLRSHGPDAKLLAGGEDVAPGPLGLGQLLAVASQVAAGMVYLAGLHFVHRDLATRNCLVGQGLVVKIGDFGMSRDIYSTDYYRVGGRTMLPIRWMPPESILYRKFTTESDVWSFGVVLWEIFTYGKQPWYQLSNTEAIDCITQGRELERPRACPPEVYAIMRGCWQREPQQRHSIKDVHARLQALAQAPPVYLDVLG
T3 sequence (P04629 33-796): as the sequence (P04629 33-796 G595R) above, with R563G counted along it
T1 sequence (P04629 33-796 G667C): as the sequence (P04629 33-796 G595R) above, with R563G, G635C counted along it
T2 sequence (Q16288 32-839): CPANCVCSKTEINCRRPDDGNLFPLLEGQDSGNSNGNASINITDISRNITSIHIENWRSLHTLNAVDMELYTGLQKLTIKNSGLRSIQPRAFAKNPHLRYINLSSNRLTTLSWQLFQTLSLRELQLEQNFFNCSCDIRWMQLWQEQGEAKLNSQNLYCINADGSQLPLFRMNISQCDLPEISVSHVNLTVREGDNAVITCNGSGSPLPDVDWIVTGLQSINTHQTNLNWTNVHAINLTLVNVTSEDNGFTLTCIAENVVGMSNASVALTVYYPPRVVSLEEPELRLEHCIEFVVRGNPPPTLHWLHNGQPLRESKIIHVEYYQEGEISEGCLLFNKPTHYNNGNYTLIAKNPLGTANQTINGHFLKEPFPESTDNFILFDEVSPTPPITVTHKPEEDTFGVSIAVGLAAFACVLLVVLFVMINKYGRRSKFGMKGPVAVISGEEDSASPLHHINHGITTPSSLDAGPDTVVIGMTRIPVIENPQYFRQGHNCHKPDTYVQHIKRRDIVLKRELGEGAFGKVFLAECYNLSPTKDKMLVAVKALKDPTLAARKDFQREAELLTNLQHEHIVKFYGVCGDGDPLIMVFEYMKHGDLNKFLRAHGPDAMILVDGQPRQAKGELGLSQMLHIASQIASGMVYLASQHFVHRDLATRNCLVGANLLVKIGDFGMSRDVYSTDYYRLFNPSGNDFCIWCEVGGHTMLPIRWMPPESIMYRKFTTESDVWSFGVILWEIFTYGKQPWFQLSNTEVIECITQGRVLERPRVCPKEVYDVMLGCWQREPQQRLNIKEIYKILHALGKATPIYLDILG
T5 sequence (Q16620 32-822): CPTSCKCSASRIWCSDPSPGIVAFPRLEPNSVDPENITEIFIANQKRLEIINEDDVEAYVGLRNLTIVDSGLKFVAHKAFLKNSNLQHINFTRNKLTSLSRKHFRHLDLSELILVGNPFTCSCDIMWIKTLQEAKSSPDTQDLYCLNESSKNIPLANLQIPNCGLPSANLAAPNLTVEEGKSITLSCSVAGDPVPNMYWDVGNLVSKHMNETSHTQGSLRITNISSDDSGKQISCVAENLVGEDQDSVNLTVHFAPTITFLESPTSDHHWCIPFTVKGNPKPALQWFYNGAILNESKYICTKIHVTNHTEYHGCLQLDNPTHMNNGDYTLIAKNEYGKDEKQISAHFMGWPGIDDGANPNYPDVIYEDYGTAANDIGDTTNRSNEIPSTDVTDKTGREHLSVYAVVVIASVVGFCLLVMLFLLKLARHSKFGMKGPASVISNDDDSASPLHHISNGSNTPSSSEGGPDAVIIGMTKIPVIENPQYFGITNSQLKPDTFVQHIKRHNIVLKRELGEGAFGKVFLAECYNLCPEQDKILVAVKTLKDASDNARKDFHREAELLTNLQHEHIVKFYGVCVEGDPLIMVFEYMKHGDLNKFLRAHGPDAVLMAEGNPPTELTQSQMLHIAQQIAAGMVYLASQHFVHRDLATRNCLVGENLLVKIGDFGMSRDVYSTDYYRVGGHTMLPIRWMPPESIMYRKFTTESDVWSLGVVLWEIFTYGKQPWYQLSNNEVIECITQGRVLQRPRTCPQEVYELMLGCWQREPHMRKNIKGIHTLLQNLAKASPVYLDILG

| Compound | pIC50 [1] | pIC50 [2] | pIC50 [3] | pIC50 [4] | pIC50 [5] |
| --- | --- | --- | --- | --- | --- |
| Fc1ccc(F)c([C@H]2C[C@H](F)CN2c2ccc3ncc(Cl)c(-c4ccn(C5CCNCC5)c4)c3n2)c1 [Example 48, 7-chloro-2-((2R,4S)-2-(2,5-difluorophenyl)-4-fluoropyrrolidin-1-yl)-8-(1-(piperidin-4-yl)-1H-pyrrol-3-yl)-1,5-naphthyridine] | > 8.00 | > 9.00 | > 9.00 | > 8.00 | > 9.00 |
| O=C(Nc1c(Cl)cnc2ccc(N3C[C@@H](F)C[C@@H]3c3cc(F)ccc3F)nc12)N1CC[C@H](O)C1 [Example 49, (S)-N-(3-Chloro-6-((2R,4S)-2-(2,5-difluorophenyl)-4-fluoropyrrolidin-1-yl)-1,5-naphthyridin-4-yl)-3-hydroxypyrrolidin-1-carboxamide] | > 8.00 | > 8.00 | > 9.00 | > 8.00 | > 9.00 |
| Fc1ccc(F)c([C@H]2C[C@H](F)CN2c2ccc3ncc(Cl)c(-c4cnc(C5CCNCC5)s4)c3n2)c1 [Example 50, 5-(3-Chloro-6-((2R,4S)-2-(2,5-difluorophenyl)-4-fluoropyrrolidin-1-yl)-1,5-naphthyridin-4-yl)-2-(piperidin-4-yl)thiazole] | > 8.00 | > 8.00 | > 9.00 | > 8.00 | > 8.00 |
| Fc1ccc(F)c([C@H]2C[C@H](F)CN2c2ccc3ncc(Cl)c(-c4cnn([C@@H]5CCCNC5)c4)c3n2)c1 [Example 54, 7-chloro-2-((2R,4S)-2-(2,5-difluorophenyl)-4-fluoropyrrolidin-1-yl)-8-(1-((R)-piperidin-3-yl)-1H-pyrazol-4-yl)-1,5-naphthyridine] | > 8.00 | > 8.00 | > 8.00 | > 8.00 | > 8.00 |
| Fc1ccc(F)c([C@H]2C[C@H](F)CN2c2ccc3ncc(Cl)c(-c4cnn([C@@H]5CCNC5)c4)c3n2)c1 [Example 56, 7-chloro-2-((2R,4S)-2-(2,5-difluorophenyl)-4-fluoropyrrolidin-1-yl)-8-(1-((R)-pyrrolidin-3-yl)-1H-pyrazol-4-yl)-1,5-naphthyridine] | > 8.00 | > 9.00 | > 9.00 | > 8.00 | > 8.00 |
| Fc1ccc(F)c([C@H]2C[C@H](F)CN2c2ccc3ncc(Cl)c(-c4cnn([C@H]5CCNC5)c4)c3n2)c1 [Example 57, 7-chloro-2-((2R,4S)-2-(2,5-difluorophenyl)-4-fluoropyrrolidin-1-yl)-8-(1-((S)-pyrrolidin-3-yl)-1H-pyrazol-4-yl)-1,5-naphthyridine] | > 8.00 | > 9.00 | > 9.00 | > 9.00 | > 8.00 |
| Fc1ccc(F)c([C@H]2C[C@H](F)CN2c2ccc3ncnc(-c4cnn(CC5CNC5)c4)c3n2)c1 [Example 59, 4-(1-(azetidin-3-ylmethyl)-1H-pyrazol-4-yl)-6-((2R,4S)-2-(2,5-difluorophenyl)-4-fluoropyrrolidin-1-yl)pyrido[3,2-d]pyrimidine HCOOH salt] | > 8.00 | > 9.00 | > 9.00 | > 8.00 | > 7.30 |
| Fc1ccc(F)c([C@H]2C[C@H](F)CN2c2ccc3ncc(Cl)c(-c4cnc(N5CCOCC5)s4)c3n2)c1 [Example 61, 4-(5-(3-chloro-6-((2R,4S)-2-(2,5-difluorophenyl)-4-fluoropyrrolidin-1-yl)-1,5-naphthyridin-4-yl)thiazol-2-yl)morpholine] | > 8.00 | > 8.00 | > 8.00 | > 7.30 | > 7.30 |
| O[C@H]1CCN(c2ccc(-c3c(Cl)cnc4ccc(N5C[C@@H](F)C[C@@H]5c5cc(F)ccc5F)nc34)cn2)C1 [Example 66, (S)-1-(5-(3-chloro-6-((2R,4S)-2-(2,5-difluorophenyl)-4-fluoropyrrolidin-1-yl)-1,5-naphthyridin-4-yl)pyridin-2-yl)pyrrolidin-3-ol] | > 8.00 | > 8.00 | > 9.00 | > 8.00 | > 8.00 |

More lines, now with the values ahead:

| pIC50 [1] | pIC50 [2] | pIC50 [3] | pIC50 [4] | pIC50 [5] | Compound |
| --- | --- | --- | --- | --- | --- |
| > 9.00 | > 9.00 | > 9.00 | > 9.00 | > 9.00 | OC[C@H](O)CN1CCC(n2cc(-c3c(Cl)cnc4ccc(N5C[C@@H](F)C[C@@H]5c5cc(F)ccc5F)nc34)cn2)CC1 [Example 40, (R)-3-(4-(4-(3-chloro-6-((2R,4S)-2-(2,5-difluorophenyl)-4-fluoropyrrolidin-1-yl)-1,5-naphthyridin-4-yl)-1H-pyrazol-1-yl)piperidin-1-yl)propane-1,2-diol] |
| > 9.00 | > 9.00 | > 9.00 | > 8.00 | > 9.00 | Fc1ccc(F)c([C@H]2C[C@H](F)CN2c2ccc3ncc(Cl)c(-c4cnn(C5CCNCC5)n4)c3n2)c1 [Example 41, 7-chloro-2-((2R,4S)-2-(2,5-difluorophenyl)-4-fluoropyrrolidin-1-yl)-8-(2-(piperidin-4-yl)-2H-1,2,3-triazol-4-yl)-1,5-naphthyridine] |
| > 8.00 | > 9.00 | > 9.00 | > 8.00 | > 9.00 | Fc1ccc(F)c([C@H]2C[C@H](F)CN2c2ccc3ncc(Cl)c(-c4nnc(C5CCNCC5)o4)c3n2)c1 [Example 42, 2-(3-Chloro-6-((2R,4S)-2-(2,5-difluorophenyl)-4-fluoropyrrolidin-1-yl)-1,5-naphthyridin-4-yl)-5-(piperidin-4-yl)-1,3,4-oxadiazole] |
| > 9.00 | > 9.00 | > 9.00 | > 8.00 | > 9.00 | CN1CCC(n2cc(-c3c(Cl)cnc4ccc(N5C[C@@H](F)C[C@@H]5c5cc(F)ccc5F)nc34)cn2)CC1 [Example 43, 7-Chloro-2-((2R,4S)-2-(2,5-difluorophenyl)-4-fluoropyrrolidin-1-yl)-8-(1-(1-methylpiperidine-4-yl)-1H-pyrazol-4-yl)-1,5-naphthyridine] |
| > 9.00 | > 9.00 | > 9.00 | > 8.00 | > 9.00 | OC[C@@H](O)CN1CCC(n2cc(-c3c(Cl)cnc4ccc(N5C[C@@H](F)C[C@@H]5c5cc(F)ccc5F)nc34)cn2)CC1 [Example 44, (S)-3-(4-(4-(3-chloro-6-((2R,4S)-2-(2,5-difluorophenyl)-4-fluoropyrrolidin-1-yl)-1,5-naphthyridin-4-yl)-1H-pyrazol-1-yl)piperidin-1-yl)propane-1,2-diol] |
| > 9.00 | > 9.00 | > 9.00 | > 9.00 | > 9.00 | Fc1ccc(F)c([C@H]2C[C@H](F)CN2c2ccc3ncnc(-c4cnn(C5CCNCC5)c4)c3n2)c1 [Example 46] |
| > 9.00 | > 9.00 | > 9.00 | > 8.00 | > 9.00 | O=S1(=O)CCC(n2cc(-c3c(Cl)cnc4ccc(N5C[C@@H](F)C[C@@H]5c5cc(F)ccc5F)nc34)cn2)CC1 [Example 47, 4-(4-(3-chloro-6-((2R,4S)-2-(2,5-difluorophenyl)-4-fluoropyrrolidin-1-yl)-1,5-naphthyridin-4-yl)-1H-pyrazol-1-yl)tetrahydro-2H-thiopyran 1,1-dioxide] |
| > 9.00 | > 9.00 | > 9.00 | > 9.00 | > 9.00 | Fc1ccc(F)c([C@H]2C[C@H](F)CN2c2ccc3ncc(Cl)c(-c4noc(C5CCNCC5)n4)c3n2)c1 [Example 51, 3-(3-Chloro-6-((2R,4S)-2-(2,5-difluorophenyl)-4-fluoropyrrolidin-1-yl)-1,5-naphthyridine-4-yl)-5-(piperidin-4-yl)-1,2,4-oxadiazole] |
